Consider 16 compounds from patent US10023836B2, “Medium for yeasts” (YAMAGUCHI UNIVERSITY, priority 2012, dated 2018).

In assay [1] the test system is RAK3599 strain. The assay is described as follows: Vitamin and FeCl3 concentration in AKD′ culture medium (FIGS. 22 to 28). Format: cell-based, Saccharomyces cerevisiae. The method, then: (§1) In a case where no special provisions are made, a procedure for a cultivation experiment using the culture medium to be investigated for proliferation was such that a yeast undergoing investigation was pre-cultured in a YPD liquid culture medium at 28° C. for 24 hours, after which the yeast was adjusted such that OD600=20. […] In addition, OD600 was measured every 15 minutes by a spectrophotometer (Cell density meter co8000, WPA). Hereafter, data is represented by graphs for a case using the automatic spectrophotometer; however, these graphs are primarily used to compare the slope of logarithmic growth phase proliferation curves for each culture medium, and because OD600 is measured without dilution, values where OD600=3 to 3.5 or more may be incorrect.
Pyridoxine concentration in the AKD′ culture medium was adjusted to 0, 0.004, 0.04, 0.4, 4, and 40 μg/mL, respectively, and proliferation of the RAK3599 strain was investigated.
Pantothenic acid concentration in the AKD′ culture medium was adjusted to 0, 0.004, 0.04, 0.4, 4, and 40 μg/mL, respectively, and proliferation of the RAK3599 strain was investigated.
Thiamine concentration in the AKD′ culture medium was adjusted to 0, 0.004, 0.04, 0.4, 4, and 40 μg/mL, respectively, and proliferation of the RAK3599 strain was investigated.
Nicotinic acid concentration in the AKD′ culture medium was adjusted to 0, 0.004, 0.04, 0.4, 4, and 40 μg/mL, respectively, and proliferation of the RAK3599 strain was investigated.
Myo-inositol concentration in the AKD′ culture medium was adjusted to 0, 0.02 μg/mL, 0.2 μg/mL, 2 μg/mL, 20 μg/mL, and 200 μg/mL, respectively, and proliferation of the RAK 3599 strain was investigated.
FeCl3 concentration in the AKD′ culture medium was adjusted to 0, 0.002, 0.02, 0.2, 2, and 20 μg/mL, respectively, and proliferation of the RAK3599 strain was investigated.

In assay [2] the test system is Saccharomyces cerevisiae RAK3599 strain. The assay is described as follows: SynAA culture medium: elimination of single components and inorganic ion concentration. Format: cell-based. The following applies: for essentiality for increasing proliferation: one component of the vitamin mix eliminated from SynAA culture medium; for OD600 for 1/100 solutions after 42 hours: SynAA culture medium. As for the experimental part:
as §1
Culture mediums were prepared in which one component each of the components configuring the inorganic ion mix was eliminated from the SynAA culture medium, and OD600 was measured. […] Thereafter, an investigation specifically of inorganic ion concentration was conducted. […] An investigation was conducted using RAK3599 strain (hereafter, simply referred to as “RAK3599 strain”), which is a strain of Saccharomyces cerevisiae not having a particular nutritional requirement. Where no subsequent special provisions were made, proliferation was investigated by performing roller tube culture for an appropriate amount of time at 28° C. and measuring OD600.
MgSO4 concentration in the SynAA culture mediums was adjusted to 0%, 0.0001%, 0.001%, 0.01%, 0.1%, and 1%, respectively, and proliferation of the RAK3599 strain was investigated. […] Next, MgCl2 concentration in the SynAA culture mediums was adjusted to 0.001%, 0.01%, 0.1%, and 1%, respectively, and proliferation of the RAK3599 strain was investigated.
A culture medium was prepared in which one component each of the components configuring the vitamin mix was eliminated from the SynAA culture medium, with the SynAA culture medium as the control, and proliferation of the RAK3599 strain was investigated.

The test system of assay [3] is RAK3599 strain. The assay is described as follows: Investigation with AID and aY-AID culture medium (FIGS. 29 to 39). Format: cell-based, Saccharomyces cerevisiae. The conditions noted are these: for effect on proliferation when added at high concentrations: up to 1% or up to 0.2500%; for preferred concentration / content: AID or aY-AID culture medium. As for the experimental part:
As shown in the following, an investigation was conducted into concentrations of each amino acid and a substitution potential of pantothenic acid for the amino acid in the AID culture medium. A suitable YPD culture medium was used as a control.
Next, the amino acids asparagine, isoleucine, phenylalanine, and valine were each adjusted to a culture medium additive concentration of […], 0.0312%, 0.0625%, 0.1250%, and 0.2500%, and OD600 was measured after 24 hours.
Isoleucine concentration in the aY-AID culture medium was adjusted to 0, 0.01 mg/mL, 0.1 mg/mL, 0.5 mg/mL, and 1 mg/mL, respectively, and proliferation of the RAK3599 strain was investigated.
Phenylalanine concentration in the aY-AID culture medium was adjusted to 0, 0.01, 0.1, 0.5, and 1 mg/mL, respectively, and proliferation of the RAK3599 strain was investigated.
Valine concentration in the aY-AID culture medium was adjusted to 0, 0.01, 0.1, 0.5, and 1 mg/mL, respectively, and proliferation of the RAK3599 strain was investigated.
Serine concentration in the AID culture medium was adjusted to 0, 0.01 mg/mL, 0.1 mg/mL, 0.5 mg/mL, and 1 mg/mL, respectively, and proliferation of the RAK3599 strain was investigated.
Threonine concentration in the AID culture medium was adjusted to 0, 0.01, 0.1, 0.5, and 1 mg/mL, respectively, and proliferation of the RAK3599 strain was investigated.
Asparagine concentration in the AID culture medium was adjusted to 0, 0.01, 0.1, 0.5, and 1 mg/mL, respectively, and proliferation of the RAK3599 strain was investigated.
An investigation was conducted into vitamins contained in the AID culture medium. […]

Where [4] appears, read: aY-AID culture medium, concentration of the substance 0.
[5] abbreviates: aY-AID culture medium, concentration of the substance 0.01 mg/mL.
Setting [6] is: aY-AID culture medium, concentration of the substance 0.1 mg/mL.
Where [7] appears, read: aY-AID culture medium, concentration of the substance 0.5 mg/mL.
[8] abbreviates: aY-AID culture medium, concentration of the substance 1 mg/mL.

With `[Cl][Fe]([Cl])[Cl]` [FeCl3, Anhydrous ferric (III) chloride], in the assay with RAK3599 strain [1] (AKD′ culture medium), the preferred concentration entry was “around 4000 μg/L”. Moreover, the “OD600 after 24 hours” value is reported as 10 with RAK3599 strain [1] (AKD′ culture medium, FeCl3 0 μg/mL); 9 with RAK3599 strain [1] (AKD′ culture medium, FeCl3 0.002 μg/mL); 11 with RAK3599 strain [1] (AKD′ culture medium, FeCl3 0.02 μg/mL); 10 with RAK3599 strain [1] (AKD′ culture medium, FeCl3 0.2 μg/mL); 13 with RAK3599 strain [1] (AKD′ culture medium, FeCl3 2 μg/mL); 14 in the assay on RAK3599 strain [1] (AKD′ culture medium, FeCl3 20 μg/mL).
Take `[Cl-].[K+]` [KCl, potassium chloride]: in assay [2] (0.1% added after 20 hours to SynAA culture medium with NaH2PO4 instead of KH2PO4), the proliferation result is reported as “proliferation began”.
`OB(O)O` [boric acid]: the “essentiality for increasing proliferation” value in assay [2] is recorded as “not be essential components”.
For `C[C@H](N)C(=O)O` [Alanine, L-Alanine], the “effect on proliferation when added at high concentrations” value (“effect on proliferation when added” for short) in the assay on RAK3599 strain [3] (AID culture medium) is “a positive influence was imparted to proliferation”. Besides, the “content at which the slope of the proliferation curve is greatest” value in the assay with RAK3599 strain [3] (aY-AID culture medium) was “around 1 mg/mL”. The “OD600 after 24 hours” value is 17 with RAK3599 strain [3] (aY-AID culture medium, alanine 0 mg/mL); 18 with RAK3599 strain [3] (aY-AID culture medium, alanine 0.1 mg/mL); 18 with RAK3599 strain [3] (aY-AID culture medium, alanine 1 mg/mL); 17 in the assay with RAK3599 strain [3] (aY-AID culture medium, alanine 5 mg/mL); 18 in the assay with RAK3599 strain [3] (aY-AID culture medium, alanine 10 mg/mL).
For the compound `NCCC(=O)O` [β-alanine], in the assay with RAK3599 strain [3] (AID culture medium (FIG. 39A)), the “substitution potential of pantothenic acid” value is reported as “confirmed to be substituted with pantothenic acid”. Further, in the assay on RAK3599 strain [3] (AID culture medium (FIG. 39B)), the “concentration capable of substitution with pantothenic acid” value is at least 0.4 µg/mL.
Consider `N[C@@H](Cc1ccccc1)C(=O)O` [Phenylalanine, L-Phenylalanine], for which, in the assay with RAK3599 strain [3] (AID culture medium), the “effect on proliferation when added” value is “a positive influence was imparted to proliferation”. The “preferred concentration / content” value in the assay with RAK3599 strain [3] is on record as “around 1 g/L”. Besides, the “OD600 after 24 hours” value in the assay on RAK3599 strain [3] (setting [4]) is given as 17; in the assay on RAK3599 strain [3] (setting [5]), 17; in the assay on RAK3599 strain [3] (setting [6]) it was 19; with RAK3599 strain [3] (setting [7]), 19; with RAK3599 strain [3] (setting [8]) it was 19.
For `CC(C)[C@H](N)C(=O)O` [Valine, L-VALINE], in the assay on RAK3599 strain [3] (AID culture medium), the “effect on proliferation when added” value is reported as “a positive influence was imparted to proliferation”. The “preferred concentration / content” value with RAK3599 strain [3] is listed as “around 1 g/L”. The “OD600 after 24 hours” value is 16 with RAK3599 strain [3] (setting [4]); 15 with RAK3599 strain [3] (setting [5]); 15 in the assay on RAK3599 strain [3] (setting [6]); 16 in the assay on RAK3599 strain [3] (setting [7]); 16 in the assay on RAK3599 strain [3] (setting [8]).
Take `Nc1ccc(C(=O)O)cc1` [para-aminobenzoic acid]: the effect on proliferation entry in the assay on RAK3599 strain [3] (vitamins contained in the AID culture medium (FIG. 38)) is reported as “no effect to particularly increase proliferation”.
Regarding `N[C@@H](CO)C(=O)O` [Serine, L-Serine], in the assay with RAK3599 strain [3] (AID culture medium), the “content at which proliferation particularly increased” value is “around 0.5 mg/mL” and the “effect on proliferation when added” value is recorded as “a positive influence was imparted to proliferation”. Further, the “preferred concentration / content” value in the assay on RAK3599 strain [3] is listed as “around 0.5 g/L”.
Consider `O.O.O.O.O.O.O.O=S(=O)([O-])[O-].[Mg+2]` [MgSO4, magnesium sulfate-heptahydrate], for which the “OD600 for 1/100 solutions after 42 hours” value in assay [2] (concentration of the substance adjusted to 0%) is reported as 0.02; in assay [2] (concentration of the substance adjusted to 0.0001%), 0.04; in assay [2] (concentration of the substance adjusted to 0.001%), 0.09; in assay [2] (concentration of the substance adjusted to 0.01%), 0.12; in assay [2] (concentration of the substance adjusted to 0.1%), 0.13; in assay [2] (concentration of the substance adjusted to 1%), 0.13. Moreover, the “proliferation when the component is not added” value in assay [2] (one component of the inorganic ion mix eliminated from SynAA culture medium) is given as “extremely low proliferation”.
In the case of `CC[C@H](C)[C@H](N)C(=O)O` [Isoleucine, L-Isoleucine], the “effect on proliferation when added” value in the assay with RAK3599 strain [3] (AID culture medium) is on record as “a positive influence was imparted to proliferation”. The “preferred concentration / content” value in the assay on RAK3599 strain [3] is “around 1 g/L”. In addition, the “OD600 after 24 hours” value was found to be 16 in the assay with RAK3599 strain [3] (setting [4]); 17 with RAK3599 strain [3] (setting [5]); 16 in the assay with RAK3599 strain [3] (setting [6]); 17 in the assay on RAK3599 strain [3] (setting [7]); 19 in the assay with RAK3599 strain [3] (setting [8]).
Take `Cc1cc2nc3c(=O)[nH]c(=O)nc-3n(C[C@H](O)[C@H](O)[C@H](O)CO)c2cc1C` [riboflavin]: the “essentiality for increasing proliferation” value in assay [2] is recorded as “not be essential components”.
On to `CC(=O)N[C@@H](Cc1ccc(O)cc1)C(=O)O` [acetyl tyrosine, N-acetyl tyrosine], for which the “OD600 after 24 hours” value is listed as 13 in the assay with RAK3599 strain [3] (AID culture medium, acetyl tyrosine 0 mg/mL); 14 with RAK3599 strain [3] (AID culture medium, acetyl tyrosine 0.01 mg/mL); 15 in the assay with RAK3599 strain [3] (AID culture medium, acetyl tyrosine 0.1 mg/mL); 14 with RAK3599 strain [3] (AID culture medium, acetyl tyrosine 0.5 mg/mL); 15 in the assay with RAK3599 strain [3] (AID culture medium, acetyl tyrosine 1 mg/mL); 18 in the assay on RAK3599 strain [3] (AID culture medium, acetyl tyrosine 2 mg/mL). The “preferred concentration / content” value in the assay with RAK3599 strain [3] is on record as “about 1 g/L”.
As to `Nc1nc2ncc(CNc3ccc(C(=O)N[C@@H](CCC(=O)O)C(=O)O)cc3)nc2c(=O)[nH]1` [folic acid], the “essentiality for increasing proliferation” value in assay [2] is “not be essential components”.
With `O[C@H]1[C@H](O)[C@@H](O)[C@H](O)[C@@H](O)[C@H]1O` [inositol, myo-inositol], in the assay on RAK3599 strain [1] (AKD′ culture medium, myo-inositol 0 to 200 μg/mL), the “proliferation versus inositol content” value is reported as “Proliferation increased in proportion to an increase in inositol content”. Further, the “proliferation compared with AKD′” value in the assay on RAK3599 strain [1] (inositol added at 10%) is on record as “below that of AKD′”.
Take `NC(=O)C[C@H](N)C(=O)O.O` [Asparagine, L-Asparagine monohydrate]: the “OD600 after 24 hours” value is 15 with RAK3599 strain [3] (AID culture medium, asparagine 0 mg/mL); 16 with RAK3599 strain [3] (AID culture medium, asparagine 0.01 mg/mL); 16 with RAK3599 strain [3] (AID culture medium, asparagine 0.1 mg/mL); 17 in the assay on RAK3599 strain [3] (AID culture medium, asparagine 0.5 mg/mL); 16 with RAK3599 strain [3] (AID culture medium, asparagine 1 mg/mL). The “effect on proliferation when added” value with RAK3599 strain [3] (AID culture medium) is “proliferation was confirmed to be inhibited”. In addition, in the assay with RAK3599 strain [3], the “preferred concentration / content” value was “around 0.5 g/L”.
